The values below come from patent US6391917B1, “Dialkyl ureas as calcitonin mimetics” (ZymoGenetics, Inc., priority 1998, dated 2002).

In one assay the target is T1, human PTH receptor (Homo sapiens, UniProt Q03431).
T1 construct: expressed in transfected cells; host or cells: BHK570 clone KZ10-20-48 (KZ10-20-48/PTH-20)
T1 sequence (Q03431 27-593): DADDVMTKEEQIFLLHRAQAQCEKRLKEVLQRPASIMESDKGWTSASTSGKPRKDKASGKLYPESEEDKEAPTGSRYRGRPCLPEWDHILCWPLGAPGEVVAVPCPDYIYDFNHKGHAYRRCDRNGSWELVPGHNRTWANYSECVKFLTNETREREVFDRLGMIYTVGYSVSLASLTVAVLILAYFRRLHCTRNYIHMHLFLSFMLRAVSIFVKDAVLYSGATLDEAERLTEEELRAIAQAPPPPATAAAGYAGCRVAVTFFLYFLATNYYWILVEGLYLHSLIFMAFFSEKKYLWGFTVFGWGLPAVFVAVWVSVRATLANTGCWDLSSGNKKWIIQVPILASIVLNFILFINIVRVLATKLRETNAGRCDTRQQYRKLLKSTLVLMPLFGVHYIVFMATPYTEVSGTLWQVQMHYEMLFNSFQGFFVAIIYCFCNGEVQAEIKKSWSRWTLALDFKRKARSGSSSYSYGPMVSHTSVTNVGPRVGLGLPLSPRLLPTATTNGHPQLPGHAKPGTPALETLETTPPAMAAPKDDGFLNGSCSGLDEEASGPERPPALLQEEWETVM
The assay can be described thus: CRE-luciferase induction in clone KZ10-20-48/PTH-20. It is filed as cell-based. From the text:
Test substances that appear to specifically elevate luciferase expression in CT-R positive cells but not CT-R negative cells were subjected to an additional specificity check, i.e. their inability to activate other members of the G-protein coupled receptor family. The parathyroid hormone (PTH) receptor is another member of the G-protein coupled receptor family that transduces signal through adenylate cyclase mediated elevation of cAMP.

The nature of assay [1]: Induction of hypocalcemia in rats. It is filed as in vivo. To be noted: weanling rats, tail vein, 0.5, 2.5, 5, 50 and 100 ng/rat, serum calcium one hour later. As to the method: This assay is based on the in vivo acute effect of calcitonin on osteoclasts, which causes rapid retraction of osteoclasts from bone surface (typically within 30 minutes) and which results in decreased bone resorption. See Mills, et al., in Endocrinology 1971—Proceedings of the Third International SymDosium, Taylor (ed), Heinemann Medical, London, pp. 79-88 (1972) and Singer, et al., Clin. Endocrinol. 5(Supp):333s-40s, 1976. The assay method was modified from the method described by Sturtridge and Kumar, Lancet 545:725-6, 1968. For the assay of hypocalcemic activity, weanling male Holtzman Sprague-Dawley rats (22 days old) are infused with vehicle (PBS with 1 mM HCl and 0.1% BSA), calcitonin or calcitonin mimetics through the tail vein. One hour later, blood samples are collected by orbital sinus puncture to determine serum levels of calcium. A decrease in serum calcium indicates a hypocalcemic response. The hypocalcemic response is dose-dependent as determined using salmon calcitonin (0.5, 2.5, 5, 50 and 100 ng/rat) in this model. Inhibition of PTH-induced hypercalcemia in TPTX rats

By EC50 is commonly meant the concentration at which the effect is half-maximal. A high value points to a need for much substance. `C=C[C@@]1(C)CC(=O)[C@]2(O)[C@@]3(C)[C@@H](O)CCC(C)(C)[C@@H]3[C@H](O)[C@H](OC(C)=O)[C@@]2(C)O1` [forskolin] displayed a 50% effective concentration (EC50) at human PTH receptor of 2000 nM.
For salmon calcitonin, the hypocalcemic response entry in assay [1] was “dose-dependent”.
